Columns and labels:
Format in all cases: cell-based
p100/p120 [1] = assay: p100/p120 electrophoretic mobility, bovine aortic endothelial cells (BAECs); conditions: 200 nM PDB, 30 minutes
Description: The mobility of p100 and p120 during electrophoresis is also altered by PDB-treatment in endothelial cells. The p100/p120 proteins from human umbilical vein endothelial cells (HUVECs), bovine aortic endothelial cells (BAECs) and primary pig brain endothelial cells (PBECs) were all affected by PDB-treatment. Cells were treated with or without 200 nM PDB for 30 minutes, lysed into Laemmli sample buffer, separated by electrophoresis and analysed by immunoblotting with antibodies recognising p100 and p120. […] Thus the effect of PKC activation (via PDB) on p100/p120 mobility is a widespread phenomenon.
Whole cell lysates were prepared by rapidly replacing the culture medium in 6.5 mm with hot Laemmli sample buffer, followed by heating at 100° C. for 5 minutes. Immunoprecipitations were carried out at 4° C. Confluent monolayers of cells were washed rapidly with ice cold PBS (containing 0.9 mM CaCl2 and 0.5 mM MgCl2) before addition of 0.5 ml of the appropriate buffer. The filters were then gently scraped, and the lysate was removed and centrifuged at 14000× g. […]
Cell extracts or immunoprecipitates in SDS sample buffer were resolved by SDS-PAGE. […] The filters were then extensively washed in PBS/0.5% Tween-20, and immunoreactive bands were detected by enhanced chemiluminescence (Amersham) following the manufacturers instructions.

paxillin = paxillin electrophoretic mobility by immunoblotting, MDCK I cells; conditions: 200 nM PDB, 30 minutes
Description: The migration of the cellular proteins p100 and p120 during electrophoresis is increased following PDB-treatment of MDCK I cells. PDB (phorbol-12,13-dibutyrate) is a pharmacological activator of protein kinase C. MDCK I cells are a kidney derived epithelial cell line, with particularly well developed junctional complexes. Cells treated for 30 minutes with either 200 nM PDB (+) or vehicle (−) were then lysed into Laemmli sample buffer, and separated by electrophoresis using 6% acrylamide gels. Proteins were transferred to nitrocellulose and probed with antibodies to p100/p120, and then reprobed with E-cadherin and paxillin antibodies.
Cell extracts or immunoprecipitates in SDS sample buffer were resolved by SDS-PAGE. The slab gels were then equilibrated in buffer comprising; 48 mM Tris, 39 mM glycine, 20% methanol and 0.03% SDS. Proteins were transferred to nitrocellulose filters (Hybond ECL; Amersham), which were Ponceau S stained and then blocked for 2 hours at 37° C. with 1% BSA in PBS containing 0.05% Tween-20. Filters were then probed with p120 antibody, at a dilution of 1:2500. […] The filters were then extensively washed in PBS/0.5% Tween-20, and immunoreactive bands were detected by enhanced chemiluminescence (Amersham) following the manufacturers instructions.

E-cadherin = assay: [32P] phosphorylation of immunoprecipitated E-cadherin, MDCK I cells; conditions: PDB-treated, same cell lysates
p100/p120 [2] = assay: phosphoamino acid (PAA) analysis of p100/p120, MDCK I cells; conditions: PDB treatment
Description: Following phosphate labelling, immunoprecipitation and visualisation of p100/p120 as in panel A above, the levels of p100/p120 protein were determined by immunoblotting. Thus it could be ascertained that approximately equal amounts of protein from PDB-treated and untreated cells were used for the PAA analysis. The p100/p120 bands were excised, and the proteins hydrolysed into their constituent amino acids by boiling in 5.7 M HCl. PAAs were then separated by two-dimensional electrophoresis, and detected by autoradiography. p100/p120 from control cells contains mainly phosphoserine (S), some phosphothreonine (T) and no detectable phosphotyrosine (Y). Following PDB treatment, both phosphoserine and phosphothreonine levels are reduced.
For phosphoamino acid (PAA) analysis, MDCK I cells were labelled as above with [^32P]orthophosphate, and the p100 and p120 extracted from PDB-treated or untreated cells by immunoprecipitation (as above). Following transfer to Immobilon P, and immunoblotting to assess recovery of protein, the area of the filter containing p100 and p120 was excised. The proteins were hydrolysed at 110° C. for one hour in 5.7 M HCl to release PAAs. Following lyophilisation, two dimensional PAA separation and detection was carried out as previously described (Boyle et al., 1991).

p100/p120 [3] = assay: p100/p120 electrophoretic mobility, human umbilical vein endothelial cells (HUVECs); conditions: HUVECs, 200 nM PDB, 30 minutes
Description: Cells were treated with or without 200 nM PDB for 30 minutes, lysed into Laemmli sample buffer, separated by electrophoresis and analysed by immunoblotting with antibodies recognising p100 and p120.
Human umbilical vein endothelial cells were incubated with histamine (His), pyrilamine (Pyr) or cimetidine (Cim) alone or in combination. As indicated, cells were preincubated in the absence or presence of cimetidine (10 μM) or pyrilamine (10 μM) for 10 minutes and then treated with or without histamine (10 μM) for a further 10 minutes. The cells were extracted and protein analysed by gel electrophoresis and immunoblotting. […] In the following examples, increase mobility of p100/p120 means decreased phosphorylation.
Whole cell lysates were prepared by rapidly replacing the culture medium in 6.5 mm with hot Laemmli sample buffer, followed by heating at 100° C. for 5 minutes. Immunoprecipitations were carried out at 4° C. Confluent monolayers of cells were washed rapidly with ice cold PBS (containing 0.9 mM CaCl2 and 0.5 mM MgCl2) before addition of 0.5 ml of the appropriate buffer. The filters were then gently scraped, and the lysate was removed and centrifuged at 14000× g. The supernatant was precleared with 10% (w/v) protein A-Sepharose in lysis buffer for 30-60 minutes. Appropriate primary antibodies were added to the lysate, and after 2-3 hours the immunecomplex was isolated, using rabbit anti-mouse secondary antibodies (Jackson Immunoresearch Labs Inc., West Grove, Pa.) and protein A-Sepharose. The beads were washed fives times with lysis buffer, and the bound protein was solubilized in SDS-sample buffer, followed by heating at 100° C. for 5 minutes.
Cell extracts or immunoprecipitates in SDS sample buffer were resolved by SDS-PAGE. The slab gels were then equilibrated in buffer comprising; 48 mM Tris, 39 mM glycine, 20% methanol and 0.03% SDS. Proteins were transferred to nitrocellulose filters (Hybond ECL; Amersham), which were Ponceau S stained and then blocked for 2 hours at 37° C. with 1% BSA in PBS containing 0.05% Tween-20. Filters were then probed with p120 antibody, at a dilution of 1:2500. After washing, filters were incubated with horseradish peroxidase conjugated anti-mouse antibody (Amersham), at a dilution of 1:5000. The filters were then extensively washed in PBS/0.5% Tween-20, and immunoreactive bands were detected by enhanced chemiluminescence (Amersham) following the manufacturers instructions.

Q: With `CCCC(=O)O[C@@H]1[C@@H](C)[C@@]2(O)[C@@H](C=C(CO)C[C@]3(O)C(=O)C(C)=C[C@@H]23)[C@@H]2C(C)(C)[C@]12OC(=O)CCC` [PDB, Phorbol-12,13-dibutyrate] as the compound, how does the “mobility of p100 and p120” value (p100/p120 [1]) read?
A: Its value is “the mobility of p100 and p120 increased”.

Q: And the “effect on paxillin migration (phosphorylation)” value (paxillin)?
A: Its value is “upward band shift”.

Q: And the “phosphorylation of E-cadherin” value (E-cadherin)?
A: Its value is “no change”.

Q: And the “phosphoserine and phosphothreonine levels of p100/p120” value (p100/p120 [2])?
A: Its value is “reduced”.

Q: What about the “reduction in phosphate signal (PAA densitometry)” value (p100/p120 [2]) of the same compound?
A: The value was “approximately 40%”.

Q: What about the “mobility of p100 and p120” value (p100/p120 [3]) of the same compound?
A: Its value is “the mobility of p100 and p120 increased”.

Reference: patent US6407058B1, “Modifying the permeability of physiological barriers” (Eisai Co., Limited, priority 1996, dated 2002)
